Values of other authors, collected in patent US8633194B2, “Pharmaceutical composition of piperazine derivatives” (UCB Pharma, S.A., priority 2004, dated 2014).

Target: histamine H1-receptor (Homo sapiens, UniProt P35367)
Details: in vitro

histamine H1-receptor, sequence (P35367 whole entry, species assumed): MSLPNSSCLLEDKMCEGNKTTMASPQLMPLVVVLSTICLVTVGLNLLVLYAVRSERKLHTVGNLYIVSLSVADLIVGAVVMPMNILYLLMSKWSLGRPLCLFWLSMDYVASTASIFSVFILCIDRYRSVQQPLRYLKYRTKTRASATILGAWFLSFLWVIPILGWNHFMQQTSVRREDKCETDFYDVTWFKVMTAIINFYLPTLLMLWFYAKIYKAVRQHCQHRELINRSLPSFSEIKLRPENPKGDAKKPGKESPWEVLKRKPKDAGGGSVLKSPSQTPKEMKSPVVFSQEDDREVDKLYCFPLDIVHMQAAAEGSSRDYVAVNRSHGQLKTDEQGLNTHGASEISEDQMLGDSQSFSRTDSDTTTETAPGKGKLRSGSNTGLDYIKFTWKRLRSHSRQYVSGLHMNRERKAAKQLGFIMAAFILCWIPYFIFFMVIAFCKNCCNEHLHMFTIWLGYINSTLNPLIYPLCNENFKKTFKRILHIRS

Compound: O=C(O)COCCN1CCN(C(c2ccc(F)cc2)c2ccc(F)cc2)CC1 [Efletirizine, 2-[2-[4-[bis(4-fluorophenyl)methyl]-1-piperazinyl]ethoxy]acetic acid]
- Affinity for H1-receptors: high affinity
- Selectivity for H1-receptors: selectivity
